One substance from paper PMC13233820, “Recruitment of Mre11 to recombination sites during meiosis” (Nature Communications, 2026) can be followed below.

For assay [1], the system named is supercoiled pUC19 plasmid DNA. Kind of assay: In vitro condensation assay of Mre11 (fluorescence microscopy). In kind it is biochemical. The protocol:
Fig. 1 Mre11 and the MRX complex assemble DNA-dependent condensates in vitro. a, c Effect of the presence of plasmid DNA on condensation of (a) Alexa488-labeled Mre11 (n = 11 and 9 fields of view for reactions without and with DNA, respectively) and (c) eGFP-tagged MRX (n = 11 (- DNA) and 9 ( + DNA)). Experiments were performed without PEG. b, d Effect of DNase I, in the absence of PEG, on (b) Mre11 (n = 9 (no treatment) and 11 (DNase I)) and (d) MRX (n = 9 (no treatment) and 11 (DNase I)) condensates. Condensates were pre-assembled for 20 min with 5.7 nM pUC19 prior to challenge. Quantification represents total foci intensity (green) in a field of view and total number of foci per 1000 µm^2 (magenta). Foci intensity is normalized to the mean intensity of samples with DNA for (a, c) and untreated samples for (b, d). […] Quantification represents total foci intensity (green) in a field of view (normalized to the mean of + PEG images) and total number of foci per 1000 µm^2 (magenta). […]
Fig. 2 The C-terminal IDR of Mre11 is required for condensation. a AlphaFold2 predicted model of Mre11 (AF-P32829-F1-v4). […] Quantification represents total fluorescence intensity (green) in a field of view and total number of foci per 1000 µm^2 (magenta). […]

The subject of a further assay is Mer2 condensates. Kind of assay: Colocalization of fluorescently-labeled Mer2 and Mre11 condensates. In kind it is binding, Saccharomyces cerevisiae. Particulars: condensates assembled separately on DNA then incubated together. The protocol:
Fig. 4 Mer2 recruits Mre11 during meiosis. a Effect of 1,6-hexanediol treatment on meiotic Mre11^myc foci visualized by immunofluorescence analysis of yeast nuclear spreads 4 hours after transfer to SPM. […] At least 22 tetrads were dissected for each strain (n ≥ 88 spores). e Quantification of sub-population of cells showing discrete Mre11 foci and aggregated Mre11 foci in indicated strains. Images used for analysis were from the same experiments in (b) and (d). f Colocalization of fluorescently-labeled Mer2 with wild-type or truncated Mre11. […] The number of images analyzed for each sample were WT (n = 11), Mre11^Δ10-270 (n = 13), Mre11^Δ290-472 (n = 15), Mre11^ΔIDR (n = 10), Mre11^ΔC49 (n = 13). Error bars represent mean ± SD from the indicated (n) fields of view. p-values compared to Mre11-WT are: Mre11^Δ10-270 (0.006), Mre11^Δ290-472 (0.0003), Mre11^ΔIDR (<0.0001), Mre11^ΔC49 (<0.0001). g Colocalization of fluorescently-labeled Mre11-C49 and Mer2. Condensates were assembled by mixing 800 nM of ^mScarletMre11-C49 and 200 nM of ^eGFPMer2 for 30 min prior to imaging. […]
Proteins were diluted to a 10 × stock of their appropriate working concentrations in their respective storage buffers. […] Images were analyzed with ImageJ using a custom-made script. […] Masked foci were counted, and the intensity inside the focus mask was integrated. […] Data were analyzed using Graphpad Prism 10.4.0.

For a further assay, the system named is pUC19 plasmid substrate. Kind of assay: Gel shift assay, plasmid DNA binding. Particulars: 1 nM pUC19; reduced-mobility complexes (supershift) at higher concentration. On the procedure: Proteins were diluted to their appropriate working concentrations in their respective storage buffers. […] Reactions were assembled at 30 °C for 30 mins and resolved in a 1% agarose (SeaKem LE Agarose, Lonza) at 60 V for 120 mins at 4 °C. Gels were stained with SYBR Gold Nucleic Acid Gel Stain (S11497, Invitrogen) for 40 mins and visualized with Amersham Typhoon biomolecular imager (Cytiva).

In the case of “Mre11: full-length yeast Mre11 nuclease, recombinant from Sf9 cells”, the “Condensate formation (in words)” value in assay [1] (in the presence of plasmid DNA) is listed as “form large clusters visible by fluorescence microscopy”. In assay [1] (protein titration, plasmid DNA, 5% PEG), the “Protein concentration above which foci intensity steeply increases” value was “above 200 nM”. Also, the “Colocalization with Mer2 condensates (in words)” value in the assay on Mer2 condensates is listed as “nearly absolute colocalization”. The “Protein concentration up to which fast-migrating complexes form” value in the assay on pUC19 plasmid substrate is on record as approximately 25 nM.
